Data as given in PubChem BioAssay (NCI).
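Cultured in 96-well plates, cells were exposed to test compound for 48 hours across five concentrations. GI50: concentration for 50% inhibition of growth. TGI is the concentration that stops growth completely.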

How the values were obtained:
Assay in all cases: NCI anticancer screen, dose series, 48 h
[1] = tested on: 786-0 renal
[2] = tested on: A498 renal
[3] = tested on: A549 NSCLC
[4] = tested on: ACHN renal
[5] = tested on: BT-549 breast
[6] = tested on: CAKI-1 renal
[7] = tested on: CCRF-CEM leukemia
[8] = tested on: COLO 205 colon
[9] = tested on: DU-145 prostate
[10] = tested on: EKVX NSCLC
[11] = tested on: HCC-2998 colon
[12] = tested on: HCT-116 colon
[13] = tested on: HCT-15 colon
[14] = tested on: HL-60(TB) leukemia
[15] = tested on: HOP-62 NSCLC
[16] = tested on: HOP-92 NSCLC
[17] = tested on: HS 578T breast
[18] = tested on: HT29 colon
[19] = tested on: IGROV1 ovarian
[20] = tested on: K-562 leukemia
[21] = tested on: KM12 colon
[22] = tested on: LOX IMVI melanoma
[23] = tested on: M14 melanoma
[24] = tested on: MALME-3M melanoma
[25] = tested on: MCF7 breast
[26] = tested on: MDA-MB-231 breast
[27] = tested on: MDA-MB-435
[28] = tested on: MDA-N
[29] = tested on: MOLT-4 leukemia
[30] = tested on: NCI-H226 lung
[31] = tested on: NCI-H23 lung
[32] = tested on: NCI-H460 lung
[33] = tested on: NCI-H522 lung
[34] = tested on: NCI/ADR-RES ovarian
[35] = tested on: OVCAR-3 ovarian
[36] = tested on: OVCAR-4 ovarian
[37] = tested on: OVCAR-5 ovarian
[38] = tested on: OVCAR-8 ovarian
[39] = tested on: PC-3 prostate
[40] = tested on: RPMI-8226 leukemia
[41] = tested on: SF-268 CNS
[42] = tested on: SF-295 CNS
[43] = tested on: SF-539 CNS
[44] = tested on: SK-MEL-2 melanoma
[45] = tested on: SK-MEL-28 melanoma
[46] = tested on: SK-MEL-5 melanoma
[47] = tested on: SK-OV-3 ovarian
[48] = tested on: SN12C renal
[49] = tested on: SNB-19 CNS
[50] = tested on: SNB-75 CNS
[51] = tested on: SW-620 colon
[52] = tested on: T-47D breast
[53] = tested on: TK-10 renal
[54] = tested on: U251 CNS
[55] = tested on: UACC-257 melanoma
[56] = tested on: UACC-62 melanoma
[57] = tested on: UO-31 renal

## O=c1cc(-c2ccc3ccccc3c2)[nH]c2ncc(Cl)cc12
[1]
  TGI: 16.8 µM
[2]
  TGI: 43.1 µM
[3]
  TGI: > 100 µM
[4]
  TGI: > 100 µM
[5]
  TGI: > 100 µM
[6]
  GI50: 7.58 µM
  TGI: > 100 µM
[7]
  TGI: 56.8 µM
[8]
  TGI: 21.8 µM
[9]
  TGI: > 100 µM
[10]
  TGI: > 100 µM
[11]
  TGI: > 100 µM
[12]
  GI50: 3.98 µM
  TGI: > 100 µM
[13]
  TGI: > 100 µM
[14]
  GI50: 1.78 µM
  TGI: 3.96 µM
[15]
  TGI: 29.6 µM
[16]
  TGI: 38.1 µM
[17]
  TGI: 70.8 µM
[18]
  TGI: > 100 µM
[19]
  TGI: > 100 µM
[20]
  TGI: > 100 µM
[21]
  TGI: > 100 µM
[22]
  TGI: > 100 µM
[23]
  TGI: > 100 µM
[24]
  TGI: 44.1 µM
[25]
  TGI: > 100 µM
[26]
  TGI: 56.2 µM
[27]
  GI50: 0.846 µM
  TGI: 2.76 µM
[28]
  GI50: 1.55 µM
  TGI: 5.45 µM
[29]
  TGI: > 100 µM
[30]
  TGI: > 100 µM
[31]
  TGI: 57 µM
[32]
  GI50: 4.12 µM
  TGI: > 100 µM
[33]
  TGI: 36.8 µM
[34]
  TGI: > 100 µM
[35]
  GI50: 2.65 µM
  TGI: 7.81 µM
[36]
  TGI: > 100 µM
[37]
  TGI: > 100 µM
[38]
  TGI: 22.9 µM
[39]
  GI50: 3.1 µM
  TGI: 29.1 µM
[40]
  TGI: 24.5 µM
[41]
  TGI: 34.4 µM
[42]
  GI50: 5.44 µM
  TGI: 29 µM
[43]
  TGI: 56.5 µM
[44]
  TGI: 45.1 µM
[45]
  TGI: > 100 µM
[46]
  GI50: 2.98 µM
  TGI: > 100 µM
[47]
  TGI: 34.4 µM
[48]
  TGI: > 100 µM
[49]
  TGI: 51.2 µM
[50]
  TGI: 9.96 µM
[51]
  TGI: > 100 µM
[52]
  TGI: > 100 µM
[53]
  TGI: 45.6 µM
[54]
  GI50: 4.74 µM
  TGI: 46.1 µM
[55]
  TGI: > 100 µM
[56]
  TGI: > 100 µM
[57]
  TGI: > 100 µM
